In patent US12655139B2, “Isoxazolidines as RIPK1 inhibitors and use thereof” (SANOFI, priority 2020, dated 2026):

How the values were obtained:
[1] = molecular target: T1, hRIPK1 (aa 1-375) fusion protein (Homo sapiens, UniProt Q13546); experiment: ADP-Glo kinase assay, RIPK1 autophosphorylation; type: biochemical; details: Table 1
T1 construct: hRIPK1 (aa 1-375) fusion protein
T1 sequence (Q13546 1-375): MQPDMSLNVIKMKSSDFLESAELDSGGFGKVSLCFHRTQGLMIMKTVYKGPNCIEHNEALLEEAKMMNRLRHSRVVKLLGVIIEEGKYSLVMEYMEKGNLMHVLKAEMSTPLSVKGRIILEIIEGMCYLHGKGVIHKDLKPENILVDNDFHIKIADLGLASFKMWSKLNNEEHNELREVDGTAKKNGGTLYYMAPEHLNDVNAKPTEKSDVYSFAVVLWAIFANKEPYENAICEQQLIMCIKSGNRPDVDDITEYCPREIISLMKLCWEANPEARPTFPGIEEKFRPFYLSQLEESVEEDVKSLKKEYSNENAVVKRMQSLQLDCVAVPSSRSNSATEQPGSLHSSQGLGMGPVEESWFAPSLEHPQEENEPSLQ

[2] = tested on: U937 cells; experiment: Cellular assay in U937 cells on cell death (necroptosis), TNFα/zVAD.fmk; type: cell-based; details: Homo sapiens, U-937, Table 2; read-out: U937 IC50
Summary of the method: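 U937 cells with 100 ng/ml TNFα plus 50 μM zVAD.fmk (pre-addition suspension levels) received 10 compound concentrations (10 μM–0.26 nM or 1 μM–0.07 nM) for 18–24 h at 37 °C. Live cells were read by MTS formazan absorbance at 490 nm after 4 h. % inhibition is relative to the maximal value without TNFα/zVAD.fmk.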

Structure (SMILES)	IC50 [1] [nM]	IC50 [2] [nM]
N#Cc1cncc([C@@H]2CCON2C(=O)C2CCN(c3ncc(F)c(C(N)=O)n3)CC2)c1 [compound 68]	14.7	3.25
NC(=O)c1nc(N2CCC(C(=O)N3OCC[C@H]3c3cnccn3)CC2)ncc1F [compound 75]	8.46	2.73
CC1(CCNC(=O)c2ccnc(N3CCC(C(=O)N4OCC[C@H]4c4cncc(C#N)c4)CC3)n2)CC1 [compound 77, 2-[4-[(3S)-3-(5-cyano-3-pyridyl)isoxazolidine-2-carbonyl]-1-piperidyl]-N-[2-(1-methylcyclo-propyl)ethyl]pyrimidine-4-carboxamide]	28.1	38.5
CC(C)(C)OC(=O)N1CC(NC(=O)c2ccnc(N3CCC(C(=O)N4OCC[C@H]4c4cncc(C#N)c4)CC3)n2)C1 [compound 78, Tert-butyl 3-[[2-[4-[(3S)-3-(5-cyano-3-pyridyl)isoxazolidine-2-carbonyl]-1-piperidyl]pyrimidine-4-carbonyl]amino]azetidine-1-carboxylate]	52.9	316
Cc1cnc([C@@H]2CCON2C(=O)C2CCN(c3ncc(F)c(C(N)=O)n3)CC2)cn1 [compound 90, 5-fluoro-2-[4-[(3S)-3-(5-methylpyrazin-2-yl)isoxazolidine-2-carbonyl]-1-piperidyl]pyrimidine-4-carboxamide]	12.6	38.1
Cc1cnc([C@@H]2CCON2C(=O)C2CCN(c3cc(C#N)ncn3)CC2)cn1 [compound 91, 6-[4-[(3S)-3-(5-methylpyrazin-2-yl)isoxazolidine-2-carbonyl]-1-piperidyl]pyrimidine-4-carbonitrile]	14.9	183
Cc1cc([C@@H]2CCON2C(=O)C2CCN(c3nccc(C(N)=O)n3)CC2)co1 [compound 110, (S)-2-(4-(3-(5-methylfuran-3-yl)isoxazolidine-2-carbonyl)piperidin-1-yl)pyrimidine-4-carboxamide]	17.3	1.69
N#Cc1cncc([C@@H]2CCON2C(=O)C2CCN(c3ncc(F)c(C(N)=O)n3)CC2)n1 [compound 119]	21.1	5.55
N#Cc1nc(N2CCC(C(=O)N3OCC[C@H]3c3cnccn3)CC2)ncc1F [compound 120, 5-fluoro-2-[4-[(3S)-3-pyrazin-2-ylisoxazolidine-2-carbonyl]-1-piperidyl]pyrimidine-4-carbonitrile]	18.8	1.69
NC(=O)c1ccnc(N2CCC(F)(C(=O)N3OCC[C@H]3c3cnccn3)C(F)(F)C2)n1 (stereo partly drawn) [compound 122, 2-[3,3,4-trifluoro-4-[(3S)-3-pyrazin-2-ylisoxazolidine-2-carbonyl]-1-piperidyl]pyrimidine-4-carboxamide]	29.3	44.2
N#Cc1ccnc(N2CCC(F)(C(=O)N3OCC[C@H]3c3cnccn3)C(F)(F)C2)n1 (stereo partly drawn) [compound 124, 2-[3,3,4-trifluoro-4-[(3S)-3-pyrazin-2-ylisoxazolidine-2-carbonyl]-1-piperidyl]pyrimidine-4-carbonitrile]	39.2	31.3
NC(=O)c1nc(N2CCC(F)(C(=O)N3OCC[C@H]3c3cncc(F)c3)CC2)ncc1F [compound 126, (S)-5-fluoro-2-(4-fluoro-4-(3-(5-fluoropyridin-3-yl)isoxazolidine-2-carbonyl)piperidin-1-yl)pyrimidine-4-carboxamide]	25	39.6
Cc1ccc([C@@H]2CCON2C(=O)C2CCN(c3nccc(C#N)n3)CC2)cn1 [compound 127, (S)-2-(4-(3-(6-methylpyridin-3-yl)isoxazolidine-2-carbonyl)piperidin-1-yl)pyrimidine-4-carbonitrile]	24.1	53.3
N#Cc1cncc([C@@H]2CCON2C(=O)C2CCN(c3nc(Cl)ncc3F)CC2)c1 [compound 130, 5-[(3S)-2-[1-(2-chloro-5-fluoro-pyrimidin-4-yl)piperidine-4-carbonyl]isoxazolidin-3-yl]pyridine-3-carbonitrile]	22.3	22.2
Cc1cncc([C@@H]2CCON2C(=O)C2CCN(c3nccc(C#N)n3)CC2)c1 [compound 131, (S)-2-(4-(3-(5-methylpyridin-3-yl)isoxazolidine-2-carbonyl)piperidin-1-yl)pyrimidine-4-carbonitrile]	23.9	34
Cc1cncc([C@@H]2CCON2C(=O)C2CCN(c3cc(C#N)ncn3)CC2)c1 [compound 133, (S)-6-(4-(3-(5-methylpyridin-3-yl)isoxazolidine-2-carbonyl)piperidin-1-yl)pyrimidine-4-carbonitrile]	19.8	49.4
Cc1cncc([C@@H]2CCON2C(=O)C2CCN(c3cc(C(N)=O)ncn3)CC2)c1 [compound 134, (S)-6-(4-(3-(5-methylpyridin-3-yl)isoxazolidine-2-carbonyl)piperidin-1-yl)pyrimidine-4-carboxamide]	41.6	148
Cc1ncc([C@@H]2CCON2C(=O)C2CCN(c3nccc(C(N)=O)n3)CC2)cc1F [compound 137, 2-[4-[(3S)-3-(5-fluoro-6-methyl-3-pyridyl)isoxazolidine-2-carbonyl]-1-piperidyl]pyrimidine-4-carboxamide]	21.6	16.5

Further lines, with some results ahead:

IC50 [1] [nM]	Structure (SMILES)	IC50 [2] [nM]
28.1	Cc1ncc([C@@H]2CCON2C(=O)C2CCN(c3cc(C#N)ncn3)CC2)cc1F [compound 138, (S)-6-(4-(3-(5-fluoro-6-methylpyridin-3-yl)isoxazolidine-2-carbonyl)piperidin-1-yl)pyrimidine-4-carbonitrile]	97.2
33.6	Cc1ncc([C@@H]2CCON2C(=O)C2CCN(c3cc(C(N)=O)ncn3)CC2)cc1F [compound 139, 6-[4-[(3S)-3-(5-fluoro-6-methyl-3-pyridyl)isoxazolidine-2-carbonyl]-1-piperidyl]pyrimidine-4-carboxamide]	44.7
71.3	Cc1c(F)cncc1[C@@H]1CCON1C(=O)C1CCN(c2nccc(C#N)n2)CC1 [compound 140, (S)-2-(4-(3-(5-fluoro-4-methylpyridin-3-yl)isoxazolidine-2-carbonyl)piperidin-1-yl)pyrimidine-4-carbonitrile]	550
81.9	Cc1c(F)cncc1[C@@H]1CCON1C(=O)C1CCN(c2nccc(C(N)=O)n2)CC1 [compound 141, (S)-2-(4-(3-(5-fluoro-4-methylpyridin-3-yl)isoxazolidine-2-carbonyl)piperidin-1-yl)pyrimidine-4-carboxamide]	254
407	Cc1c(F)cncc1[C@@H]1CCON1C(=O)C1CCN(c2cc(C(N)=O)ncn2)CC1 [compound 142, (S)-6-(4-(3-(5-fluoro-4-methylpyridin-3-yl)isoxazolidine-2-carbonyl)piperidin-1-yl)pyrimidine-4-carboxamide]	3000
323	Cc1c(F)cncc1[C@@H]1CCON1C(=O)C1CCN(c2cc(C#N)ncn2)CC1 [compound 143, (S)-6-(4-(3-(5-fluoro-4-methylpyridin-3-yl)isoxazolidine-2-carbonyl)piperidin-1-yl)pyrimidine-4-carbonitrile]	1760
75.2	COc1nccc(N2CCC(C(=O)N3OCC[C@H]3c3cncc(C#N)c3)CC2)n1 [compound 144, 5-[(3S)-2-[1-(2-methoxypyrimidin-4-yl)piperidine-4-carbonyl]isoxazolidin-3-yl]pyridine-3-carbonitrile]	536
46.6	N#Cc1cncc([C@@H]2CCON2C(=O)C2CCN(c3ccnc(C#N)n3)CC2)c1 [compound 145, 4-[4-[(3S)-3-(5-cyano-3-pyridyl)isoxazolidine-2-carbonyl]-1-piperidyl]pyrimidine-2-carbonitrile]	149
45.8	CSc1nccc(N2CCC(C(=O)N3OCC[C@H]3c3cncc(C#N)c3)CC2)n1 [compound 146, 5-[(3S)-2-[1-(2-methylsulfanylpyrimidin-4-yl)piperidine-4-carbonyl]isoxazolidin-3-yl]pyridine-3-carbonitrile]	229
30.6	N#Cc1cncc([C@@H]2CCON2C(=O)C2CCN(c3ccnc(Cl)n3)CC2)c1 [compound 147, 5-[(3S)-2-[1-(2-chloropyrimidin-4-yl)piperidine-4-carbonyl]isoxazolidin-3-yl]pyridine-3-carbonitrile]	56.9
370	CCOC(=O)c1nccc(N2CCC(C(=O)N3OCC[C@H]3c3cncc(C#N)c3)CC2)n1 [compound 149, ethyl 4-[4-[(3S)-3-(5-cyano-3-pyridyl)isoxazolidine-2-carbonyl]-1-piperidyl]pyrimidine-2-carboxylate]	6170
69	Cc1coc([C@@H]2CCON2C(=O)C2CCN(c3nccc(C#N)n3)CC2)c1 [compound 150, (S)-2-(4-(3-(4-methylfuran-2-yl)isoxazolidine-2-carbonyl)piperidin-1-yl)pyrimidine-4-carbonitrile]	23.5
